Source: patent US20250268884A1, “Deuterated Domperidone for Treating Gastroparesis” (CinDome Pharma, Inc., priority 2022, published 2025)

Assays:
[1] = system: adults with idiopathic or diabetic gastroparesis; conditions: 10 mg BID, Cohort 1, ITT
Source text: Gastric emptying may be measured by the gastric emptying breath test (GEBT). The GEBT is known in the art. Succinctly, the GEBT is a nonradioactive stable isotope breath test used in the art to diagnose or monitor gastroparesis. In this test, the ratio of exhaled ^13CO2/^12CO2 is used to determine the rate of gastric emptying after consumption of a standardized, ^13C-enriched meal. In some embodiments, the ^13C-enriched meal is ^13C-Spirulina platensis. In some examples, the test includes consumption of a standardized, ^13C-enriched meal after an 8-hour fast. See, e.g., the Cairn Gastric Emptying Breath Test (GEBT) Administration Guide at https://cairndiagnostics.com/wp-content/uploads/2019/05/Cairn-GEBT-How-To-Guide-updated-07May2019.pdf, which is hereby incorporated by reference. Breath samples are obtained one or more times prior to consumption of the ^13C-enriched meal and then one or more times after meal consumption. The breath samples are then measured using, e.g., a gas isotope ratio mass spectrometer. […]
Subjects were Evaluated as Follows: • Days −28 to −11: Screening procedures were performed. The ANMS GCSI-DD questionnaire was completed daily for at least 14 days prior to randomization (Day 1); • Days −10 to −3: The ANMS GCSI-DD questionnaire was completed daily. A GEBT was performed on a single day within this window, with breath samples obtained twice prior to consumption of a standardized, carbon-13 (^13C)-enriched meal and then at 45, 90, 120, 150, 180, and 240 minutes after meal consumption after an 8-hour fast. […] On Day 14 (±2 days), the PAGI-SYM and Clinical Grading Assessment questionnaires were completed prior to the final dose of study drug. • A GEBT was administered 30 minutes after study drug administration on Day 14 (±2 days). Breath samples were obtained twice prior to ^13C-enriched meal consumption and then at 45, 90, 120, 150, 180, and 240 minutes after meal consumption after an 8-hour fast. […] Clinical Grading Assessment Scales were also performed.
The primary efficacy variable was the change from baseline in gastric emptying as measured by GEBT at Day 14.
The secondary efficacy variables were the following: • The change from baseline in gastric emptying as measured by GEBT T½ at Day 14; • The change from baseline in ANMS GCSI-DD total scores; and • The change from baseline in ANMS GCSI-DD subscale scores.

[2] = system: adults with idiopathic or diabetic gastroparesis; test: 12-lead ECG QTcF safety assessment, Phase 2a; type: in vivo, human
Procedure: Safety was evaluated through assessments of Aes, vital signs, physical examinations, clinical laboratory evaluations (including prolactin), and ECG findings.

[3] = system: cardiac repolarization (QTcF) in healthy subjects; conditions: human, in vivo
[4] = system: adults with idiopathic or diabetic gastroparesis; conditions: in vivo
Procedure: Safety was evaluated through assessments of Aes, vital signs, physical examinations, clinical laboratory evaluations (including prolactin), and ECG findings. Additionally, a single, optional PGx blood sample may have been collected at any time during the subject's participation in the study.
Safety variables included Aes, clinical laboratory results (including prolactin), vital signs, ECGs, and physical examination findings.

[2H]c1c([2H])c([2H])c2c([nH]c(=O)n2CCCN2CCC(n3c(=O)[nH]c4cc(Cl)ccc43)CC2)c1[2H] [Deudomperidone, 1-{3-[4-(5-chloro-2-oxo-2,3-dihydro-1H-1,3-benzodiazol-1-yl)piperidin-1yl]propyl}-2,3-dihydro(4,5,6,7-D4)-1H-1,3-benzodiazol-2-one]
GEBT 45 minutes post meal consumption, Day 14, mean [1]: 10.74 kPCD
GEBT 45 minutes post meal consumption, change from baseline to Day 14 [1]: 1.96 kPCD
GEBT 45 minutes post meal consumption, percent change from baseline to Day 14 [1]: 89.31%
GEBT 90 minutes post meal consumption, Day 14, mean [1]: 23.60 kPCD
GEBT 90 minutes post meal consumption, change from baseline to Day 14 [1]: 3.37 kPCD
GEBT 90 minutes post meal consumption, percent change from baseline to Day 14 [1]: 56.73%
GEBT 120 minutes post meal consumption, Day 14, mean [1]: 32.68 kPCD
GEBT 120 minutes post meal consumption, change from baseline to Day 14 [1]: 3.86 kPCD
GEBT 120 minutes post meal consumption, percent change from baseline to Day 14 [1]: 40.17%
GEBT 150 minutes post meal consumption, Day 14, mean [1]: 37.13 kPCD
GEBT 150 minutes post meal consumption, change from baseline to Day 14 [1]: 1.25 kPCD
GEBT 150 minutes post meal consumption, percent change from baseline to Day 14 [1]: 23.46%
GEBT 180 minutes post meal consumption, Day 14, mean [1]: 40.96 kPCD
GEBT 180 minutes post meal consumption, change from baseline to Day 14 [1]: 1.85 kPCD
GEBT 180 minutes post meal consumption, percent change from baseline to Day 14 [1]: 20.31%
GEBT 240 minutes post meal consumption, Day 14, mean [1]: 41.41 kPCD
GEBT 240 minutes post meal consumption, change from baseline to Day 14 [1]: −0.79 kPCD
GEBT 240 minutes post meal consumption, percent change from baseline to Day 14 [1]: 9.46%
subjects with ≥6% change from baseline in QTcF ([2]; 10 mg BID, Day 14 at 4 hours post-dose): 1 (3.6%) subjects (%)
subjects with ≥6% change from baseline in QTcF ([2]; 10 mg BID, Day 14 at 6 hours post-dose): 1 (4.3%) subjects (%)
subjects with ≥6% change from baseline in QTcF ([2]; 20 mg QD, Day 14 at 4 hours post-dose): 3 (20.0%) subjects (%)
subjects with ≥6% change from baseline in QTcF ([2]; 20 mg QD, Day 14 at 6 hours post-dose): 2 (16.7%) subjects (%)
QTcF of subject meeting alert criteria (never increased above) ([2]; 1 subject, alert at 4 and 6 hours post-dose on Day 14): ≤ 426 ms
QTcF of second subject meeting alert criteria ([2]; Day 7, baseline QTcF average 430 msec): 474 ms
prolongations of the QTcF interval ([2]; all dose groups): no clinically meaningful prolongations
estimated slope of concentration-QTc relationship, Model B [3]: 0.79 ms per ng/mL
plasma concentration up to which an effect on ΔΔQTcF exceeding 10 ms can be excluded [3]: ~92 ng/mL
treatment effect-specific intercept, Model B [3]: -0.03 ms
tolerability of multiple doses [4]: generally well tolerated
